From the CheMixHub viscosity set
“And” between values parts separate entries of the source, which are not always exact repeats. Equal entries are not always repeated.

Key:
[1] = xn = mol fraction of the nth substance listed

CCCCCCO
viscosity
Details | 100 kPa | 101 kPa | 101.3 kPa | 101.33 kPa
293.15 K | 5.36 mPa·s and 5.363 mPa·s and 5.273 mPa·s | 4.963 mPa·s | 5.361 mPa·s | 4.993 mPa·s
298 K | 4.502 mPa·s | – | – | –
298.15 K | 4.45 mPa·s | – | 4.342 mPa·s and 4.403 mPa·s | –
303 K | – | – | – | 3.82 mPa·s
303.15 K | 3.883 mPa·s | – | 3.69 mPa·s | –
308 K | – | – | – | 3.3 mPa·s
308.15 K | – | – | 3.139 mPa·s and 3.604 mPa·s | –
313 K | – | 2.903 mPa·s | – | 2.87 mPa·s and 2.82 mPa·s
313.15 K | 2.9 mPa·s and 2.896 mPa·s | 2.86 mPa·s and 3.451 mPa·s and 2.934 mPa·s | – | –
318.15 K | 2.571 mPa·s and 2.656 mPa·s | 2.397 mPa·s and 2.656 mPa·s | 2.655 mPa·s | 2.601 mPa·s
323 K | – | – | – | 2.183 mPa·s
323.15 K | 2.2 mPa·s | 2.072 mPa·s | – | 2.267 mPa·s

CCCCCCCCCCCCCC[P+](CCCCCC)(CCCCCC)CCCCCC.c1nnc[n-]1
100 kPa
Details | viscosity [mPa·s]
293.15 K | 1320
298.15 K | 918
303.15 K | 654
308.15 K | 477
313.15 K | 354
318.15 K | 269
323.15 K | 209

CCS
Details | viscosity [mPa·s]
298.15 K, 101 kPa | 0.2091

CCC(C)N (stereo not drawn)
viscosity
Details | 298.15 K | 303.15 K | 308.15 K | 313.15 K | 318.15 K | 323.15 K
101 kPa | – | 0.4024 mPa·s | 0.3996 mPa·s and 0.3996 mPa·s | – | – | –
101.33 kPa | 0.4176 mPa·s | 0.3884 mPa·s | 0.3659 mPa·s | 0.3465 mPa·s | 0.3274 mPa·s | 0.3104 mPa·s

CCCCCC(=O)O
Details | viscosity [mPa·s]
298.15 K, 101 kPa | 2.814
323.15 K, 101.33 kPa | 1.762

CC(C)CC(C)(C)C
viscosity
Details | 293.15 K | 298.15 K | 303.15 K | 308.15 K | 313.15 K | 318.15 K | 323.15 K
100 kPa | – | 0.492 mPa·s | – | 0.45 mPa·s | 0.431 mPa·s | – | –
101 kPa | 0.498 mPa·s | – | 0.451 mPa·s and 0.445 mPa·s | 0.428 mPa·s and 0.427 mPa·s | – | 0.378 mPa·s | 0.364 mPa·s and 0.3593 mPa·s
101.33 kPa | – | 0.462 mPa·s and 0.492 mPa·s and 0.4842 mPa·s | – | 0.412 mPa·s and 0.441 mPa·s | 0.391 mPa·s and 0.4056 mPa·s | 0.381 mPa·s and 0.3848 mPa·s | –

CCOCC
viscosity
Details | 293.15 K | 298.15 K | 303.15 K | 303.16 K
101 kPa | 0.239 mPa·s | – | 0.212 mPa·s | 0.2193 mPa·s and 0.2193 mPa·s
101.33 kPa | 0.25 mPa·s | 0.225 mPa·s | – | –

CC(=O)CC(C)C
viscosity
Details | 293.15 K | 298.15 K | 303.15 K | 308.15 K | 313.15 K | 318.15 K | 323.15 K
100 kPa | 0.59 mPa·s | – | 0.53 mPa·s | – | 0.47 mPa·s | – | 0.42 mPa·s
101 kPa | 0.575 mPa·s | 0.543 mPa·s and 0.54 mPa·s and 0.543 mPa·s | – | 0.494 mPa·s and 0.476 mPa·s and 0.456 mPa·s | 0.443 mPa·s | – | 0.401 mPa·s
101.3 kPa | – | 0.543 mPa·s | 0.519 mPa·s | – | 0.467 mPa·s | – | –
101.32 kPa | 0.5848 mPa·s | 0.5463 mPa·s | – | 0.4871 mPa·s | – | – | –
101.33 kPa | 0.5848 mPa·s and 0.586 mPa·s | 0.5463 mPa·s and 0.542 mPa·s | 0.52 mPa·s | 0.4871 mPa·s and 0.505 mPa·s | – | 0.447 mPa·s | –

CC=Cc1ccc2c(c1)OCO2
Details | viscosity [mPa·s]
298.15 K, 101 kPa | 3.981

O=C1CCCCC1
Details | viscosity
293.15 K, 101.3 kPa | 2.546 mPa·s
293.15 K, 101.33 kPa | 2.315 mPa·s
298.15 K, 101.3 kPa | 1.963 mPa·s
303.15 K, 101.3 kPa | 1.768 mPa·s and 1.915 mPa·s
308.15 K, 101 kPa | 1.631 mPa·s and 1.632 mPa·s and 1.632 mPa·s
308.15 K, 101.3 kPa | 1.602 mPa·s and 1.585 mPa·s
313.15 K, 100 kPa | 1.481 mPa·s
313.15 K, 101 kPa | 1.476 mPa·s and 1.476 mPa·s and 1.481 mPa·s
318.15 K, 100 kPa | 1.285 mPa·s
318.15 K, 101 kPa | 1.285 mPa·s and 1.373 mPa·s and 1.373 mPa·s
318.15 K, 101.33 kPa | 1.311 mPa·s

CCCC(=O)[O-].CC[NH+](CC)CCO
101 kPa
Details | viscosity [mPa·s]
293.15 K | 71.57
298.15 K | 53.96
303.15 K | 41.42
308.15 K | 32.34
313.15 K | 25.64
318.15 K | 20.63
323.15 K | 16.82

O=C(OCc1ccccc1)c1ccccc1O
Details | viscosity [mPa·s]
303.15 K, 101 kPa | 6.722

CC(C)CC(=O)CC(C)C
100 kPa
Details | viscosity [mPa·s]
293.15 K | 0.95
298.15 K | 0.905
303.15 K | 0.86
308.15 K | 0.81
313.15 K | 0.76
318.15 K | 0.72
323.15 K | 0.67

CCCC[n+]1ccccc1.F[B-](F)(F)F
101.3 kPa
Details | viscosity
293.15 K | 223 mPa·s and 223.1 mPa·s
298.15 K | 163 mPa·s and 163.3 mPa·s
303.15 K | 121 mPa·s and 123 mPa·s
308.15 K | 92.8 mPa·s and 94.21 mPa·s
313.15 K | 72.3 mPa·s and 70.29 mPa·s
318.15 K | 57.4 mPa·s and 55.81 mPa·s
323.15 K | 46.3 mPa·s and 45.12 mPa·s

OCCOc1ccccc1
101 kPa
Details | viscosity [mPa·s]
303.15 K | 12.86
313.15 K | 9.235
323.15 K | 5.927

O=C1CCCCC1 + Cc1ccc(C)cc1
viscosity [mPa·s], [1], 101.33 kPa
Details | x1 = 0.1013 | x1 = 0.2048 | x1 = 0.3016 | x1 = 0.4023 | x1 = 0.5186 | x1 = 0.6081 | x1 = 0.7034 | x1 = 0.7967 | x1 = 0.9005
298.15 K | 0.655 | 0.702 | 0.762 | 0.834 | 0.938 | 1.04 | 1.194 | 1.35 | 1.617
303.15 K | 0.612 | 0.657 | 0.711 | 0.777 | 0.871 | 0.965 | 1.088 | 1.237 | 1.481
308.15 K | 0.574 | 0.618 | 0.667 | 0.728 | 0.819 | 0.897 | 1.01 | 1.144 | 1.354

CCCCCCO + CCCCCCCCCCCC
[1], 298.15 K, 101 kPa
Details | viscosity [mPa·s]
x2 = 0.0555 | 3.93
x2 = 0.0999 | 3.52
x2 = 0.1555 | 3.06
x2 = 0.1999 | 2.74
x2 = 0.2554 | 2.38
x2 = 0.2999 | 2.12
x2 = 0.3555 | 1.85
x2 = 0.3998 | 1.66
x2 = 0.4555 | 1.47
x2 = 0.4999 | 1.34
x2 = 0.5554 | 1.21
x2 = 0.5998 | 1.14
x2 = 0.6554 | 1.07
x2 = 0.6999 | 1.04
x2 = 0.7555 | 1.02
x2 = 0.7997 | 1.03
x2 = 0.8555 | 1.06
x2 = 0.8998 | 1.09
x2 = 0.9555 | 1.15

CC(=O)CC(C)C + CCCCCCO
viscosity [mPa·s], [1], 100 kPa
Details | x1 = 0.0851 | x1 = 0.1723 | x1 = 0.2541 | x1 = 0.3619 | x1 = 0.4246 | x1 = 0.5566 | x1 = 0.6612 | x1 = 0.7441 | x1 = 0.8559 | x1 = 0.9468
293.15 K | 3.74 | 2.71 | 2 | 1.37 | 1.12 | 0.78 | 0.65 | 0.6 | 0.56 | 0.56
303.15 K | 2.94 | 2.14 | 1.62 | 1.13 | 0.93 | 0.66 | 0.53 | 0.49 | 0.48 | 0.49
313.15 K | 2.32 | 1.79 | 1.38 | 0.96 | 0.79 | 0.54 | 0.43 | 0.41 | 0.41 | 0.43
323.15 K | 1.88 | 1.48 | 1.15 | 0.8 | 0.66 | 0.45 | 0.35 | 0.33 | 0.34 | 0.37

O=[PH2][O-].O=[PH2][O-].[Mn+2] + O
Details | viscosity [mPa·s]
[1], 298.15 K, 101.33 kPa, x1 = 0.0137 | 1.68

CCC12CC3CC(CC(C3)C1)C2
100 kPa
Details | viscosity [mPa·s]
293.15 K | 6.43
298.15 K | 5.606
303.15 K | 4.931
308.15 K | 4.365
313.15 K | 3.887

CC(=O)CC(C)C + CCCCCCCCCO
viscosity [mPa·s], [1], 100 kPa
Details | x1 = 0.0834 | x1 = 0.1721 | x1 = 0.2398 | x1 = 0.3469 | x1 = 0.4365 | x1 = 0.5577 | x1 = 0.6608 | x1 = 0.7339 | x1 = 0.8594 | x1 = 0.9502
293.15 K | 9.91 | 8.52 | 7.62 | 6.42 | 5.48 | 4.28 | 3.31 | 2.64 | 1.6 | 0.93
303.15 K | 6.85 | 5.94 | 5.34 | 4.49 | 3.86 | 3.05 | 2.42 | 1.99 | 1.27 | 0.78
313.15 K | 4.92 | 4.29 | 3.87 | 3.27 | 2.82 | 2.27 | 1.82 | 1.51 | 1 | 0.65
323.15 K | 3.63 | 3.18 | 2.88 | 2.45 | 2.13 | 1.73 | 1.4 | 1.18 | 0.81 | 0.55

CC(=O)CC(C)C + CCCCCCCO
viscosity [mPa·s], [1], 100 kPa
Details | x1 = 0.0823 | x1 = 0.1682 | x1 = 0.2346 | x1 = 0.3569 | x1 = 0.4379 | x1 = 0.5614 | x1 = 0.6493 | x1 = 0.7489 | x1 = 0.8505 | x1 = 0.9471
293.15 K | 5.46 | 4.21 | 3.56 | 2.62 | 2.19 | 1.66 | 1.37 | 1.1 | 0.86 | 0.68
303.15 K | 4.09 | 3.24 | 2.78 | 2.08 | 1.76 | 1.35 | 1.13 | 0.91 | 0.72 | 0.59
313.15 K | 3.09 | 2.53 | 2.2 | 1.71 | 1.45 | 1.14 | 0.96 | 0.79 | 0.63 | 0.52
323.15 K | 2.37 | 1.98 | 1.76 | 1.4 | 1.22 | 0.98 | 0.83 | 0.68 | 0.56 | 0.47
